Laboratory results: patent US20250295656A1, “COMBINATION OF LURBINECTEDIN AND IMMUNE CHECKPOINT INHIBITORS” (priority 2020, published 2025)

Assays:
MCA205 tumours [1] = test: Established MCA205 tumours in immunodeficient mice; type: in vivo; conditions: athymic (nu/nu) mice; 0.18 mg/kg i.v. day 1, 7 and 14
Description: Live MCA205 cells were injected subcutaneously (s.c.) into immunocompetent C57BL/6 mice or immunodeficient nu/nu mice as depicted in the scheme in (a) When tumours became palpable, mice were intravenously ([…]). Tumour growth was assessed regularly for the following 30 days. Data is depicted as tumour growth curves (b,d) and overall survival plots (c,e). Data were analyzed with TumGrowth.
(§1) In order to assess the capacity of lurbinectedin to stimulate anticancer immunity in a monotherapeutic approach and to convert tumour cells into a therapeutic vaccine we exposed murine fibrosarcoma cells to the drug in vitro (in conditions previously established to induce a sufficient amplitude of cell death) and then injected the dying cancer cells into syngeneic immunocompetent mice. […] Next we evaluated the effect of lurbinectedin on established cancers growing on immunocompetent or immunodeficient mice. […]
(§2) Six- to eight-week-old female wild-type C57BL/6 and nu/nu mice were obtained from Envigo France (Huntingdon, UK) and were kept in the animal facility at the Gustave Roussy Campus Cancer in a specific pathogen-free and temperature-controlled environment with 12 h day, 12 h night cycles and received food and water ad libitum. […] Animals were monitored and tumour growth documented regularly until end-points were reached. […]

MCA205 tumours [2] = test: Established MCA205 tumours in immunocompetent mice; type: in vivo, immunocompetent C57BL/6 mice; conditions: immunocompetent C57BL/6, 0.18 mg/kg i.v. day 1, 7 and 14
Description: Live MCA205 cells were injected subcutaneously (s.c.) into immunocompetent C57BL/6 mice or immunodeficient nu/nu mice as depicted in the scheme in (a) When tumours became palpable, mice were intravenously (i.v.) injected with […] lurbinectedin (on day 1, 7 and 14). Tumour growth was assessed regularly for the following 30 days. Data is depicted as tumour growth curves (b,d) and overall survival plots (c,e). Data were analyzed with TumGrowth.
as §1, §2

## COc1ccc2[nH]c3c(c2c1)CCN[C@]31CS[C@@H]2c3c(OC(C)=O)c(C)c4c(c3[C@H](COC1=O)N1[C@@H]2[C@H]2c3c(cc(C)c(OC)c3O)C[C@@H]([C@@H]1O)N2C)OCO4 [lurbinectedin]
MCA205 tumours [1]
  therapeutic effect (tumour growth, overall survival): lost
MCA205 tumours [2]
  overall survival: increased
MCA205 tumours [2]; vs control animals, p<0.0001
  tumour growth: significantly reduced
